Test results taken from patent US20240376073A1 (Hoffmann-La Roche Inc., priority 2021, published 2024).
Counter-ions that a name gives are not always drawn.

Test system: Acinetobacter baumannii ATCC17961
Experiment: Antimicrobial susceptibility testing: 90% growth inhibitory concentration (IC90) determination
Assay type: cell-based
Conditions: Acinetobacter baumannii ATCC17961; Iso-Sensitest broth; growth by OD 600 nm over 16 h; 35±2° C.; read-out: ATCC 17961 IC90
Protocol: The in vitro antimicrobial activity of the compounds was determined according to the following procedure:
The assay used a 10-points Iso-Sensitest broth medium to measure quantitatively the in vitro activity of the compounds against Acinetobacter baumannii ATCC17961.
Stock compounds in DMSO were serially twofold diluted (e.g. range from 50 to 0.097 μM final concentration) in 384 wells microtiter plates and inoculated with 49 μl the bacterial suspension in Iso-Sensitest medium to have a final cell concentration of ˜5×10^(5) CFU/ml in a final volume/well of 50 ul/well. Microtiter plates were incubated at 35±2° C.
Bacterial cell growth was determined with the measurement of optical density at λ=600 nm each 20 minutes over a time course of 16 h. Growth inhibition was calculated during the logarithmic growth of the bacterial cells with determination of the concentration inhibiting 50% (IC50) and 90% (IC90) of the growth.
Table 1 provides the […] growth inhibitory concentrations (IC90) in micromoles per liter of the compounds of present invention obtained against the strain Acinetobacter baumannii ATCC17961.

| IC90 | SMILES |
| --- | --- |
| 280 nM | COc1ccc(-c2cnc(C(=O)Nc3ccc(C(=O)N4CCN(C(=O)C[N+](C)(C)CC(N)=O)CC4)c(C)c3)n2C)c(F)c1F [Example B1, (2-Amino-2-oxo-ethyl)-[2-[4-[4-[[5-(2,3-difluoro-4-methoxy-phenyl)-1-methyl-imidazole-2-carbonyl]amino]-2-methyl-benzoyl]piperazin-1-yl]-2-oxo-ethyl]-dimethyl-ammonium;formate] |
| 230 nM | Cc1cc(NC(=O)c2ncc(-c3ccc(OCC#N)c(F)c3F)n2C)ccc1C(=O)N1CCN(C(=O)C[N+](C)(C)CC(N)=O)CC1 [Example B2, (2-amino-2-oxo-ethyl)-[2-[4-[4-[[5-[4-(cyanomethoxy)-2,3-difluoro-phenyl]-1-methyl-imidazole-2-carbonyl]amino]-2-methyl-benzoyl]piperazin-1-yl]-2-oxo-ethyl]-dimethyl-mmonium; formate] |
| 190 nM | COc1ccc(-c2cnc(C(=O)Nc3ccc(C(=O)N4CCN(C(=O)CC[N+](C)(C)CC(N)=O)CC4)c(C)c3)n2C)c(F)c1F [Example B3, (2-amino-2-oxo-ethyl)-[3-[4-[4-[[5-(2,3-difluoro-4-methoxy-phenyl)-1-methyl-imidazole-2-carbonyl]amino]-2-methyl-benzoyl]piperazin-1-yl]-3-oxo-propyl]-dimethyl-ammonium; 2,2,2-trifluoroacetate] |
| 110 nM | Cn1c(-c2ccc(OCC#N)c(F)c2F)cnc1C(=O)Nc1ccc(C(=O)N2CCN(C(=O)C[N+](C)(C)CC(N)=O)CC2)c(Cl)c1 [Example B4, (2-amino-2-oxo-ethyl)-[2-[4-[2-chloro-4-[[5-[4-(cyanomethoxy)-2,3-difluoro-phenyl]-1-methyl-imidazole-2-carbonyl]amino]benzoyl]piperazin-1-yl]-2-oxo-ethyl]-dimethyl-ammonium; formate] |
| 120 nM | COc1ccc(-c2cnc(C(=O)Nc3ccc(C(=O)N4CCC(NC(=O)C[N+](C)(C)CC(N)=O)CC4)c(Cl)c3)n2C)c(F)c1F [Example B5, (2-amino-2-oxo-ethyl)-[2-[1-[2-chloro-4-[5-(2,3-difluoro-4-methoxy-phenyl)-1-methyl-imidazole-2-carbonyl]amino]benzoyl]-4-piperidyl]amino]-2-oxo-ethyl]-dimethyl-ammonium; formate] |
| 290 nM | COc1ccc(-c2cnc(C(=O)Nc3ccc(C(=O)NC4CN(C(=O)C[N+](C)(C)CC(N)=O)C4)c(Cl)c3)n2C)c(F)c1F [Example B6, (2-amino-2-oxo-ethyl)-[2-[3-[[2-chloro-4-[[5-(2,3-difluoro-4-methoxy-phenyl)-1-methyl-imidazole-2-carbonyl]amino]benzoyl]aminoJazetidin-1-yl]-2-oxo-ethyl]-dimethyl-ammonium; formate] |
| 99 nM | COc1ccc(-c2cnc(C(=O)Nc3ccc(C(=O)N4CCN(C(=O)C[N+](C)(C)CC(N)=O)CC4)c(Cl)c3)n2C)c(F)c1F [Example B7, (2-amino-2-oxo-ethyl)-[2-[4-[2-chloro-4-[[5-(2,3-difluoro-4-methoxy-phenyl)-1-methyl-imidazole-2-carbonyl]amino]benzoyl]piperazin-1-yl]-2-oxo-ethyl]-dimethyl-ammonium; formate] |
| 180 nM | COc1ccc(-c2cnc(C(=O)Nc3ccc(C(=O)N4CCN(C(=O)CC[N+](C)(C)C)CC4)c(C)c3)n2C)c(F)c1F [Example B8, [3-[4-[4-[[5-(2,3-Difluoro-4-methoxy-phenyl)-1-methyl-imidazole-2-carbonyl]amino]-2-methyl-benzoyl]piperazin-1-yl]-3-oxo-propyl]-trimethyl-ammonium;2,2,2-trifluoroacetate] |
| 56 nM | Cn1c(-c2ccc(OCC#N)c(F)c2F)cnc1C(=O)Nc1ccc(C(=O)N2CCN(C(=O)CC[N+](C)(C)C)CC2)c(Cl)c1 [Example B9, [3-[4-[2-chloro-4-[[5-[4-(cyanomethoxy)-2,3-difluoro-phenyl]-1-methyl-imidazole-2-carbonyl]amino]benzoyl]piperazin-1-yl]-3-oxo-propyl]-trimethyl-ammonium; iodide] |
| 75 nM | COc1ccc(-c2cnc(C(=O)Nc3ccc(C(=O)N4CCN(C(=O)C5CC[N+](C)(C)CC5)CC4)c(Cl)c3)n2C)c(F)c1F [Example B10, N-[3-chloro-4-[4-(1,1-dimethylpiperidin-1-ium-4-carbonyl)piperazine-1-carbonyl]phenyl]-5-(2,3-difluoro-4-methoxy-phenyl)-1-methyl-imidazole-2-carboxamide; formate] |
| 150 nM | Cn1c(-c2ccc(OC(F)F)cc2F)cnc1C(=O)Nc1ccc(C(=O)N2CCN(C(=O)C[N+](C)(C)C)CC2)c(Cl)c1 [Example B11, [2-[4-[2-chloro-4-[5-[4-(difluoromethoxy)-2-fluoro-phenyl]-1-methyl-imidazole-2-carbonyl]amino]benzoyl]piperazin-1-yl]-2-oxo-ethyl]-trimethyl-ammonium; formate] |
| 51 nM | Cn1c(-c2ccc(OC(F)F)c(F)c2F)cnc1C(=O)Nc1ccc(C(=O)N2CCN(C(=O)C[N+](C)(C)C)CC2)c(Cl)c1 [Example B12, [2-[4-[2-chloro-4-[[5-[4-(difluoromethoxy)-2,3-difluoro-phenyl]-1-methyl-imidazole-2-carbonyl]amino]benzoyl]piperazin-1-yl]-2-oxo-ethyl]-trimethyl-ammonium; formate] |
| 68 nM | COc1ccc(-c2cnc(C(=O)Nc3ccc(C(=O)N4CCN(C(=O)CC5CC[N+](C)(C)C5)CC4)c(Cl)c3)n2C)c(F)c1F (stereo not drawn) [Example B13, N-[3-chloro-4-[4-[2-(1,1-dimethylpyrrolidin-1-ium-3-yl)acetyl]piperazine-1-carbonyl]phenyl]-5-(2,3-difluoro-4-methoxy-phenyl)-1-methyl-imidazole-2-carboxamide; formate] |
| 76 nM | Cn1c(-c2ccc(OC(F)F)c(F)c2F)cnc1C(=O)Nc1ccc(C(=O)N2CCN(C(=O)C3CCN(C(=O)C[N+](C)(C)C)CC3)CC2)c(Cl)c1 [Example B14, [2-[4-[4-[2-chloro-4-[[5-[4-(difluoromethoxy)-2,3-difluoro-phenyl]-1-methyl-imidazole-2-carbonyl]amino]benzoyl]piperazine-1-carbonyl]-1-piperidyl]-2-oxo-ethyl]-trimethyl-ammonium; formate] |
| 140 nM | Cn1c(-c2ccc(OC(F)F)c(F)c2)cnc1C(=O)Nc1ccc(C(=O)N2CCN(C(=O)C[N+](C)(C)C)CC2)c(Cl)c1 [Example B15, [2-[4-[2-chloro-4-[[5-[4-(difluoromethoxy)-3-fluoro-phenyl]-1-methyl-imidazole-2-carbonyl]amino]benzoyl]piperazin-1-yl]-2-oxo-ethyl]-trimethyl-ammonium; formate] |
| 230 nM | COc1ccc(-c2cnc(C(=O)Nc3ccc(C(=O)N4CCN(C(=O)C5CN(C(=O)C[N+](C)(C)C)C5)CC4)c(Cl)c3)n2C)c(F)c1F [Example B16, [2-[3-[4-[2-chloro-4-[[5-(2,3-difluoro-4-methoxy-phenyl)-1-methyl-imidazole-2-carbonyl]amino]benzoyl]piperazine-1-carbonyl]azetidin-1yl]-2-oxo-ethyl]-trimethyl-ammonium; formate] |
| 250 nM | COc1ccc(-c2cnc(C(=O)Nc3ccc(C(=O)N4CC(NC(=O)C5CC[N+](C)(C)CC5)C4)c(Cl)c3)n2C)c(F)c1F [Example B17, N-[1-[2-chloro-4-[[5-(2,3-difluoro-4-methoxy-phenyl)-1-methyl-imidazole-2-carbonyl]amino]benzoyl]azetidin-3-yl]-1,1-dimethyl-piperidin-1-ium-4-carboxamide; formate] |
| 300 nM | COc1ccc(-c2cnc(C(=O)Nc3ccc(C(=O)N4C[C@@H]5CN(C(=O)[C@@H]6CC[N+](C)(C)C6)C[C@@H]5C4)c(Cl)c3)n2C)c(F)c1F [Example B18, N-[4-[(3aS,6aR)-5-[(3R)-1,1-dimethylpyrrolidin-1-ium-3-carbonyl]-1,3,3a,4,6,6a-hexahydropyrrolo[3,4-c]pyrrole-2-carbonyl]-3-chloro-phenyl]-5-(2,3-difluoro-4-methoxy-phenyl)-1-methyl-imidazole-2-carboxamide; formate] |
| 310 nM | COc1ccc(-c2cnc(C(=O)Nc3ccc(C(=O)N4C[C@H]5CN(C(=O)C[N+](C)(C)C)C[C@H]5C4)c(Cl)c3)n2C)c(F)c1F [Example B19, [2-[(3aS,6aR)-5-[2-chloro-4-[[5-(2,3-difluoro-4-methoxy-phenyl)-1-methyl-imidazole-2-carbonyl]amino]benzoyl]-1,3,3a,4,6,6a-hexahydropyrrolo[3,4-c]pyrrol-2-yl]-2-oxo-ethyl]-trimethyl-ammonium; formate] |
| 76 nM | COc1ccc(-c2cnc(C(=O)Nc3ccc(C(=O)N4CCN(C(=O)C[N+](C)(C)C)CC4)c(Cl)c3)n2C)c(F)c1F [Example B20, [2-[4-[2-chloro-4-[[5-(2,3-difluoro-4-methoxy-phenyl)-1-methyl-imidazole-2-carbonyl]amino]benzoyl]piperazin-1-yl]-2-oxo-ethyl]-trimethyl-ammonium; formate] |
| 280 nM | COc1ccc(-c2cnc(C(=O)Nc3ccc(C(=O)N4CCN(C(=O)C[N+](C)(C)C)CC4)c(C)c3)n2C)c(F)c1F [Example B21, [2-[4-[4-[5-(2,3-difluoro-4-methoxy-phenyl)-1-methyl-imidazole-2-carbonyl]amino]-2-methyl-benzoyl]piperazin-1-yl]-2-oxo-ethyl]-trimethyl-ammonium; formate] |
